Results on 18 compounds are retold here after patent EP4480314A1, “BENEFICIAL SALTS FOR ENHANCING BIOCONTROL EFFICACY OF FUNGAL SPORES” (priority 2023, dated 2024).

Each structure is given as a SMILES string. ≈ marks a conversion by molar mass, not a printed value.

The conditions of series [1]: cited from earlier work.
For series [2] the following is noted: cited from earlier work. The source holds these as a separate data set.
Series [3] has as its system Bemisia tabaci. Kind of series: Insecticidal activity against white flies on single-leaf cotton plants, spray application (Example 1, spores of C. javanica strain Apopka 97). The class given is in vivo. On the set-up: expected control (Colby) less than the observed level of control: concentration or dose not given beside the values. As to conditions: for expected control (Colby) less than the observed level of control: in composition with 1,0E+07 spores/ml C. javanica Apopka 97; for Abbott efficacy: spores 1,0E+07 s/ml, cotton, twelve days after treatment, control pure water; for White fly mortality: composition of spores and salt compared with spores alone or the salt alone.

Series [4] relates to Bemisia tabaci. The experiment in a line: Insecticidal activity against white flies on bean plants (Phaseolus vulgaris), microsprayer application (Example 2, spores of C. javanica strain GF 511). The class given is in vivo.
Procedure: For testing insecticidal activity against white flies, 9-day-old plants (Phaseolus vulgaris cv. Pérola) with two primary leaves grown with Oxisol (2 L) with fertilizer NPK 5-30-15 were kept in a screenhouse covered with a fine screen fabric (50 mesh). Adult-infested plants with Bemisia tabaci were shaken and placed next to pest-free bean plants (9 days old with two primary leaves) for 6 to 8h to allow oviposition. This exposure provided more than 200 eggs per leaf. Afterwards the plants were transferred to a clean and insect-free room and incubated at 25°C until hatching and development of immobile N2 nymphal stages (10 to 12 days after infestation). Per treatment, seven pots with four bean plants in the two-leave stage were used as biological replicates. The experiment was conducted in a randomized block design in five screenhouse benches, one for each repetition, with the treatments randomized within the block.
Before spraying, whitefly nymphs were checked for good coverage on the leaves and the infected plants were sprayed with the prepared solutions as detailed above. […] The amount is adjusted in function of the size of the primary leaves in order to ensure a good coverage. Afterwards, the plants are incubated under controlled conditions (30 °C and 40 % RH). Fourteen days after treatment, one plant/pot (two leaves per treatment) were destructively evaluated for insect mortality. Nymphal mortality was assessed under a dissecting stereomicroscope (Leica) at x40 magnification. For confirming the fungal infection, a small red dot was marked on the leaf next to the dead nymphs. The leaves were then incubated inside Gerbox box with a wet cotton added to the leaf petiole for four days at room temperature. The dead marked nymphs presenting sporulation (i.e., mycosed nymphs) were considered infected by the fungus.
A further series concerns white flies. To be noted: spores of C. fumosorosea supplemented with low concentrations of the acid in the spray liquid; PCT/EP2022/086495; cited from earlier work.
[5] abbreviates: Table 2, citric acid 0,05%, ammonium citrate di-basic 0,06%, potassium citrate 0,08%.
Setting [6] is: Table 1, citric acid 0,1%, glutamic acid monosodic salt 0,08%.

Consider `O=C(O)C=C(CC(=O)O)C(=O)O` [Aconitic acid], for which the “pka(1)” value in series [1] was 2,8. Also, the “water solubility (g/l) at room temperature” value (shortened to “water solubility (g/l)”) in series [2] is 400 g/L (≈ 2300 mM).
`O=C(O)CCC(=O)C(=O)O` [alpha-ketoglutaric acid]: in series [2], the “water solubility (g/l)” value was 100 g/L (≈ 684 mM).
As to `CC[C@H](C)[C@H](N)C(=O)O` [Isoleucine], the “pka(1)” value in series [1] was 2,32.
On to `N[C@@H](Cc1ccccc1)C(=O)O` [Phenylalanine], for which the “water solubility (g/l)” value in series [2] was above 10 g/L.
With `O=C(O)c1ccnc(C(=O)O)c1` [Lutidinic acid], in series [1], the “pka(1)” value is recorded as 2,17.
On to `O=C([O-])CC(O)(CC(=O)[O-])C(=O)[O-].[K+].[K+].[K+]` [potassium citrate], for which, in the series with Bemisia tabaci [3] (Table 2), the “expected control (Colby) less than the observed level of control” value (from here on “expected control”) is recorded as 11,7%. Besides, the Abbott efficacy in the series on Bemisia tabaci [3] (setting [5]) was 1,74. The White fly mortality entry in the series with Bemisia tabaci [3] was “significantly and synergistically higher”.
Consider `O=C(O)c1cccnc1C(=O)O` [Chinolinic acid], for which the “water solubility (g/l)” value in series [2] was 10 g/L (≈ 59.8 mM).
As to `O=C(O)c1ccccn1` [Picolinic acid], the “pka(1)” value in series [1] is 5,39. Besides, the “water solubility (g/l)” value in series [2] is 887 g/L (≈ 7200 mM).
With `N[C@@H](Cc1c[nH]c2ccccc12)C(=O)O` [Tryptophan], in series [1], the “pka(1)” value is 2,46. For the same compound, in series [2], the “water solubility (g/l)” value is recorded as 11,4 g/l.
Take `N[C@@H](CCC(=O)O)C(=O)[O-].[Na+]` [glutamic acid monosodic salt, glutamic acid monosodium salt]: the “expected control” value in the series on Bemisia tabaci [3] (Table 1) is given as 26,44%; in the series on Bemisia tabaci [4], 11,03%. Besides, the values for the Abbott efficacy with Bemisia tabaci [3] (setting [6]) and in the series with Bemisia tabaci [4] were -0,34 and 7,57, respectively. In the series with Bemisia tabaci [3], the White fly mortality entry was “significantly and synergistically higher”.
With `O=C(O)c1ccc(C(=O)O)nc1` [Isocinchomeronic acid], in series [1], the “pka(1)” value was 2,31.
Regarding `N[C@@H](C[SeH])C(=O)O` [Selenocysteine], the “water solubility (g/l)” value in series [2] was 400 g/L (≈ 2380 mM).
With `CC(C)[C@H](N)C(=O)O` [Valine], the “pka(1)” value in series [1] is listed as 2,39.
Turning to `O=C(O)CC(O)(CC(=O)O)C(=O)O` [citric acid, Citric acid, reference compound], the “expected control” value is listed as 11,63% in the series on Bemisia tabaci [3] (Table 1) and 24,27% with Bemisia tabaci [3] (Table 2). Further, the Abbott efficacy in the series on Bemisia tabaci [3] (setting [6]) is on record as 9,86; with Bemisia tabaci [3] (setting [5]) it was 7,88; with Bemisia tabaci [4] (Table 3, spores 1,0E+07 s/ml, citric acid 0,05%, glutamic acid monosodium salt 0,08%, all with 0,05% Tween, bean plants, fourteen days after treatment, control Tween 80 (0.05% v/v)) it was 3.56. The “efficacy of this entomopathogenic fungus against white flies” value in the series on white flies was “increase the efficacy”.
As to `O=C(O)c1cccc(C(=O)O)n1` [Dipicolinic acid], in the series on white flies, the “efficacy of this entomopathogenic fungus against white flies” value is “increase the efficacy”.
With `N.N.O=C(O)CC(O)(CC(=O)O)C(=O)O` [ammonium citrate di-basic], the “expected control” value in the series on Bemisia tabaci [3] (Table 2) is 27,89%. Moreover, the Abbott efficacy in the series with Bemisia tabaci [3] (setting [5]) was 6,34. Moreover, the White fly mortality result in the series on Bemisia tabaci [3] is “significantly and synergistically higher”.
Regarding `O=C(O)CC(C(=O)O)C(O)C(=O)O` (stereo not shown) [Isocitric acid], in series [2], the “water solubility (g/l)” value was 53 g/L (≈ 276 mM).
As to `O=C(O)CC(O)C(=O)O` (stereo not shown) [Malic acid], in series [2], the “water solubility (g/l)” value is 558 g/L (≈ 4160 mM).
